These molecules were tested against T1, PPARγ (Homo sapiens, UniProt P37231) (assay: PPARγ ligand binding assay utilizing [3H]-BRL 49653 as the radioligand). Details: concentration required to reduce by 50% the specific binding of [3H]-BRL 49653.
T1 construct: made in house
T1 sequence (P37231 1-505): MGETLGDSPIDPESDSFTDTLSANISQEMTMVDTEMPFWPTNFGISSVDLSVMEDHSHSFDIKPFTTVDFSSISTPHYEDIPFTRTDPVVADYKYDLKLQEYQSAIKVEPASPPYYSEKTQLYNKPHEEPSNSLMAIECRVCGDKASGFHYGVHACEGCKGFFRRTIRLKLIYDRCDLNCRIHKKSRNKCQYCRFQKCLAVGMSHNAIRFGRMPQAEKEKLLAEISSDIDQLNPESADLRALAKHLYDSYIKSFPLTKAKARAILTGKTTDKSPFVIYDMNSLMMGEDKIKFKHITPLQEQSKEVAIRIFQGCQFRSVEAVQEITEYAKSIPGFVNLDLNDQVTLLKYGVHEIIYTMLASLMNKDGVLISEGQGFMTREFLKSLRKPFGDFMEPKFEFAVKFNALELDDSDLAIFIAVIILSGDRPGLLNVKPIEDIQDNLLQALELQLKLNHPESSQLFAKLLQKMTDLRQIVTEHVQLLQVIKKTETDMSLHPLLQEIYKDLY
Excerpt: The compounds of the present invention can be evaluated for modulation of the PPARγ receptor using assays such as those described in Jiang, et al., Nature 391:82-86 (1998), Ricote, et al., Nature 391:79-82 (1998) and Lehmann, et al., J. Biol. Chem. 270(12): 12953-12956 (1995). Alternatively, the compounds can be evaluated for their ability to displace radiolabeled BRL 49653 from a PPARγ-GST fusion protein as follows:
PPARγ-GST fusion protein (prepared according to standard procedures), [^3H]—BRL 49653 having 50 Ci/mmol specific activity, Polyfiltronics Unifilter 350 filtration plate and glutathione-Sepharose® beads (from Pharmacia: washed twice with 10× binding buffer in which BSA and DTI can be left out).
Binding buffer (10 mM Tris-HCl, pH 8.0, 50 mM KCI, 10 mM DTT, 0.02% BSA and 0.01% NP-40) is added in 80-μL amounts to the wells of the filtration plate. The test compound is then added in 10 μL of DMSO. The PPARγ-GST fusion protein and radiolabeled BRL compound are premixed in binding buffer containing 10 mM DTT and added in 10-μL amounts to the wells of the plate to provide final concentrations of 1 μg/well of PPARγ-GST fusion protein and 10 nM [^3H]—BRL 49653 compound. The plate is incubated for 15 min. Glutathione-agarose bead is added in 50 μL of binding buffer, and the plate is vigorously shaken for one hour. The plate is washed four times with 200 μL/well of binding buffer (without BSA and DTT). The bottom of the plate is sealed and 200 μL/well of scintillation cocktail is added. The top of the plate is then sealed and the radioactivity is determined.
IC50 values are defined as the concentration of test compounds required to reduce by 50% the specific binding of [^3H]—BRL 49653 and are represented by (+) <30 μM; (++) <10 μM; (+++) <1 μM.

SMILES	IC50 [nM]
COc1cccc2sc(Oc3cc(Cl)cc(NS(=O)(=O)c4cc(C)c(Cl)cc4Cl)c3)nc12 [Compound 298, 2,4-Dichloro-N-[3-chloro-5-(4-methoxy-benzothiazol-2-yloxy)-phenyl]-5-methyl-benzenesulfonamide]	< 1000
Cc1ccc2nc(Oc3cc(Cl)cc(NS(=O)(=O)c4ccc(C(F)(F)F)cc4Cl)c3)sc2c1 [Compound 299, 2-Chloro-N-[3-chloro-5-(6-methyl-benzothiazol-2-yloxy)-phenyl]-4-trifluoromethyl-benzenesulfonamide]	< 1000
Cc1ccc2nc(Oc3cc(Cl)cc(NS(=O)(=O)c4ccc(Cl)cc4Cl)c3)sc2c1 [Compound 300, 2,4-Dichloro-N-[3-chloro-5-(6-methyl-benzothiazol-2-yloxy)-phenyl]-benzenesulfonamide]	< 1000
Cc1ccc2nc(Oc3cc(Cl)cc(NS(=O)(=O)c4cc(C)c(Cl)cc4Cl)c3)sc2c1 [Compound 301, 2,4-Dichloro-N-[3-chloro-5-(6-methyl-benzothiazol-2-yloxy)-phenyl]-5-methyl-benzenesulfonamide]	< 1000
O=S(=O)(Nc1cc(Cl)cc(Oc2nc3ccc(Cl)cc3s2)c1)c1ccc(C(F)(F)F)cc1Cl [Compound 302, 2-Chloro-N-[3-chloro-5-(6-chloro-benzothiazol-2-yloxy)-phenyl]-4-trifluoromethyl-benzenesulfonamide]	< 1000
O=S(=O)(Nc1cc(Cl)cc(Oc2nc3ccc(Cl)cc3s2)c1)c1ccc(Cl)cc1Cl [Compound 303, 2,4-Dichloro-N-[3-chloro-5-(6-chloro-benzothiazol-2-yloxy)-phenyl]-benzenesulfonamide]	< 1000
O=S(=O)(Nc1cc(Cl)cc(Oc2nc3ccc(F)cc3s2)c1)c1ccc(C(F)(F)F)cc1Cl [Compound 304, 2-Chloro-N-[3-chloro-5-(6-fluoro-benzothiazol-2-yloxy)-phenyl]-4-trifluoromethyl-benzenesulfonamide]	< 1000
O=S(=O)(Nc1cc(Cl)cc(Oc2nc3ccc(F)cc3s2)c1)c1ccc(Cl)cc1Cl [Compound 305, 2,4-Dichloro-N-[3-chloro-5-(6-fluoro-benzothiazol-2-yloxy)-phenyl]-benzenesulfonamide]	< 1000
Cc1cc(S(=O)(=O)Nc2cc(Cl)cc(Oc3nc4ccc(F)cc4s3)c2)c(Cl)cc1Cl [Compound 306, 2,4-Dichloro-N-[3-chloro-5-(6-fluoro-benzothiazol-2-yloxy)-phenyl]-5-methyl-benzenesulfonamide]	< 1000
COc1ccc2nc(Oc3cc(Cl)cc(NS(=O)(=O)c4ccc(C(F)(F)F)cc4Cl)c3)sc2c1 [Compound 307, 2-Chloro-N-[3-chloro-5-(6-methoxy-benzothiazol-2-yloxy)-phenyl]-4-trifluoromethyl-benzenesulfonamide]	1000 to 10000
COc1ccc2nc(Oc3cc(Cl)cc(NS(=O)(=O)c4ccc(Cl)cc4Cl)c3)sc2c1 [Compound 308, 2,4-Dichloro-N-[3-chloro-5-(6-methoxy-benzothiazol-2-yloxy)-phenyl]-benzenesulfonamide]	< 1000
COc1ccc2nc(Oc3cc(Cl)cc(NS(=O)(=O)c4cc(C)c(Cl)cc4Cl)c3)sc2c1 [Compound 309, 2,4-Dichloro-N-[3-chloro-5-(6-methoxy-benzothiazol-2-yloxy)-phenyl]-5-methyl-benzenesulfonamide]	< 1000
CCOC(=O)c1ccc2nc(Oc3cc(Cl)cc(NS(=O)(=O)c4ccc(C(F)(F)F)cc4Cl)c3)sc2c1 [Compound 310, 2-[3-Chloro-5-(2-chloro-4-trifluoromethyl-benzenesulfonylamino)-phenoxy]-benzothiazole-6-carboxylic acid ethyl ester]	< 1000
CCOC(=O)c1ccc2nc(Oc3cc(Cl)cc(NS(=O)(=O)c4ccc(C(F)(F)F)cc4Cl)c3)sc2c1 [Compound 311, 2-[3-Chloro-5-(2-chloro-4-trifluoromethyl-benzenesulfonylamino)-phenoxy]-benzothiazole-6-carboxylic acid ethyl ester]	< 1000
O=S(=O)(Nc1cc(Oc2nc3cc(Cl)ccc3s2)cc(Oc2nc3cc(Cl)ccc3s2)c1)c1ccc(C(F)(F)F)cc1Cl [Compound 322, N-[3,5-Bis-(5-chloro-benzothiazol-2-yloxy)-phenyl]-2-chloro-4-trifluoromethyl-benzenesulfonamide]	1000 to 10000
O=S(=O)(Nc1cc(Oc2nc3cc(Cl)ccc3s2)cc(Oc2nc3cc(Cl)ccc3s2)c1)c1ccc(Cl)cc1Cl [Compound 323, N-[3,5-Bis-(5-chloro-benzothiazol-2-yloxy)-phenyl]-2,4-dichloro-benzenesulfonamide]	1000 to 10000
Cc1cc(S(=O)(=O)Nc2cc(Oc3nc4cc(Cl)ccc4s3)cc(Oc3nc4cc(Cl)ccc4s3)c2)c(Cl)cc1Cl [Compound 324, N-[3,5-Bis-(5-chloro-benzothiazol-2-yloxy)-phenyl]-2,4-dichloro-5-methyl-benzenesulfonamide]	< 1000
O=S(=O)(Nc1cc(Cl)cc(Cc2nc3cc(Cl)ccc3s2)c1)c1ccc(C(F)(F)F)cc1Cl [Compound 331, 2-Chloro-N-[3-chloro-5-(5-chloro-benzothiazol-2-ylmethyl)-phenyl]-4-trifluoromethyl-benzenesulfonamide]	< 1000
O=S(=O)(Nc1cc(Cl)cc(Cc2nc3cc(Cl)ccc3s2)c1)c1ccc(Cl)cc1Cl [Compound 332, 2,4-Dichloro-N-[3-chloro-5-(5-chloro-benzothiazol-2-ylmethyl)-phenyl]-benzenesulfonamide]	< 1000
Cc1cc(S(=O)(=O)Nc2cc(Cl)cc(Cc3nc4cc(Cl)ccc4s3)c2)c(Cl)cc1Cl [Compound 333, 2,4-Dichloro-N-[3-chloro-5-(5-chloro-benzothiazol-2-ylmethyl)-phenyl]-5-methyl-benzenesulfonamide]	< 1000
O=S(=O)(Nc1cc(Cl)c(Oc2nc3c(Cl)cccc3s2)c(Cl)c1)c1ccc(C(F)(F)F)cc1Cl [Compound 424, 2-Chloro-N-[3,5-dichloro-4-(4-chloro-benzothiazol-2-yloxy)-phenyl]-4-trifluoromethyl-benzenesulfonamide]	1000 to 10000
O=S(=O)(Nc1cc(Cl)c(Oc2nc3c(Cl)cccc3s2)c(Cl)c1)c1ccc(Cl)cc1Cl [Compound 425, 2,4-Dichloro-N-[3,5-dichloro-4-(4-chloro-benzothiazol-2-yloxy)-phenyl]-benzenesulfonamide]	1000 to 10000
Cc1cc(S(=O)(=O)Nc2cc(Cl)c(Oc3nc4c(Cl)cccc4s3)c(Cl)c2)c(Cl)cc1Cl [Compound 426, 2,4-Dichloro-N-[3,5-dichloro-4-(4-chloro-benzothiazol-2-yloxy)-phenyl]-5-methyl-benzenesulfonamide]	< 1000
COc1cccc2sc(Oc3c(Cl)cc(NS(=O)(=O)c4ccc(C(F)(F)F)cc4Cl)cc3Cl)nc12 [Compound 427, 2-Chloro-N-[3,5-dichloro-4-(4-methoxy-benzothiazol-2-yloxy)-phenyl]-4-trifluoromethyl-benzenesulfonamide]	< 1000
COc1cccc2sc(Oc3c(Cl)cc(NS(=O)(=O)c4ccc(Cl)cc4Cl)cc3Cl)nc12 [Compound 428, 2,4-Dichloro-N-[3,5-dichloro-4-(4-methoxy-benzothiazol-2-yloxy)-phenyl]-benzenesulfonamide]	< 1000
COc1cccc2sc(Oc3c(Cl)cc(NS(=O)(=O)c4cc(C)c(Cl)cc4Cl)cc3Cl)nc12 [Compound 429, 2,4-Dichloro-N-[3,5-dichloro-4-(4-methoxy-benzothiazol-2-yloxy)-phenyl]-5-methyl-benzenesulfonamide]	< 1000
O=S(=O)(Nc1cc(Cl)c(Oc2nc3ccc(Cl)cc3s2)c(Cl)c1)c1ccc(Br)cc1OC(F)(F)F [Compound 433, 4-Bromo-N-[3,5-dichloro-4-(6-chloro-benzothiazol-2-yloxy)-phenyl]-2-trifluoromethoxy-benzenesulfonamide]	< 1000
O=S(=O)(Nc1cc(Cl)c(Oc2nc3ccc(Cl)cc3s2)c(Cl)c1)c1ccc(OC(F)(F)F)cc1 [Compound 434, N-[3,5-Dichloro-4-(6-chloro-benzothiazol-2-yloxy)-phenyl]-4-trifluoromethoxy-benzenesulfonamide]	1000 to 10000

From patent publication US7960408B2, “Quinolinyl and benzothiazolyl modulators” (Amgen Inc., priority 2000, dated 2011)
